Type in all cases: cell-based, Balb/c mice
The subject of one assay is IL5. Nature of the assay: Inhibition of IL5 secretion by Concanavalin A-treated splenocytes (ELISA). As for the experimental part: (§1) The isolated splenocytes were diluted in RPMI medium (containing 10% fetal bovine serum (FBS) and antibiotics (100 U/mL penicillin and 100 μg/mL streptomycin)) at a concentration of 5×10^6 cells/nit, and the cell dilution was dispended in a 24-well plate in an amount of 500 μl/well and in a 96-well plate in an amount of 100 μl/well. The plates were incubated in a 5% CO2 incubator at 37° C. for 48 hours. […] The medium of the 24-well plate was used to measure the degree of secretion of Th2 inflammatory cytokines (IL4 and IL5), and the 96-well plate was used to measure the degree of cell proliferation. First, in order to measure Th2 cytokines, the medium in the 24-well plate was collected and centrifuged at 800×g for 5 minutes, and the supernatant was collected. 100 μl of the supernatant per well was used in IL4 or IL5 enzyme-linked immunosorbent assay (ELISA, Komabiotech Inc.) to measure the degree of secretion of these cytokines. In order to measure the degree of cell proliferation, […] of CCK8 (cell counting kit 8, Donjindo) solution was added to each well of the 96-well plate, and after 4 hours, the absorbance value was measured. The degree of inhibition of spleen cell proliferation by each drug and the degree of inhibition of Th2 cytokine secretion by each drug were calculated using Equation 2 below. For drug synergistic effects, a linear equation was constructed using the concentrations of drugs administered alone as x-coordinates and using drug concentration-dependent inhibition as y-coordinates. Using this linear equation, the concentrations of drugs administered alone, which correspond to inhibition achieved when administered in combination, were calculated, and combination index (CI) was calculated using Equation 3 below. A CI value of less than 1 indicates a synergistic effect, a CI value of 1 indicates an additive effect, and a CI value of more than 1 indicates an antagonistic effect (Liang Zhao et. al., Clinical Cancer Research, 10, 7994-8004, 2004). […]
For orientation: In an ELISA, binding on a coated surface is turned into a signal by an enzyme label.

A further assay has as its system IL4. Nature of the assay: Inhibition of IL4 secretion by Concanavalin A-treated splenocytes (ELISA). The protocol:
as §1

Another assay relates to splenocytes. Nature of the assay: Inhibition of Concanavalin A-induced splenocyte proliferation (CCK8). The protocol: as §1

`COc1cc2c(OC)c3c(c(-c4ccc5c(c4)OCO5)c2cc1OC)COC3=O` [Justicidin C, justicidin C]: the “Inhibition of IL5 secretion (%, n = 2, Mean ± SD)” value was found to be 39.8 ± 0.03% in the assay with IL5 (Table 7, 1 μM); 36.4 ± 0.02% in the assay on IL5 (Table 7, 5 μM); 16.9 ± 0.06% in the assay on IL5 (Table 8, Concentration (mM) 1); 26.2 ± 0.00% with IL5 (Table 8, Concentration (mM) 5). For the same molecule, the “inhibition of IL5 secretion (in words)” value in the assay with IL5 (text on Tables 7 and 8) was “inhibited the secretion of IL4 and IL5”. Also, the “Inhibition of IL4 secretion (%, n = 2, Mean ± SD)” value in the assay with IL4 (Table 7, 1 μM) is given as −14.1 ± 0.05%; with IL4 (Table 7, 5 μM), 26.1 ± 0.04%; in the assay on IL4 (Table 8, Concentration (mM) 1), 25.3 ± 0.15%; in the assay with IL4 (Table 8, Concentration (mM) 5) it was 51.7 ± 0.02%. In addition, the “inhibition of IL4 secretion (in words)” value in the assay on IL4 (text on Tables 7 and 8) is “inhibited the secretion of IL4 and IL5”. The “Inhibition of splenocyte proliferation (%, n = 3, Mean ± SD)” value with splenocytes (Table 5, 0.5 μM) is −3.6 ± 4.00%; in the assay on splenocytes (Table 5, 5 μM), 8.4 ± 3.20%; in the assay on splenocytes (Table 6, 1 μM), 6.7 ± 15.08%; in the assay on splenocytes (Table 6, 5 μM), 31.7 ± 12.81%. Moreover, the “inhibition of splenocyte proliferation (in words)” value in the assay with splenocytes (Tables 4 to 6) was “exhibited the effect of inhibiting splenocyte proliferation”.

The values above are taken from patent US10869904B2, “Pharmaceutical composition for preventing or treating respiratory disease comprising extract of Justicia procumbens L” (DONG WHA PHARM. CO., LTD., priority 2016, dated 2020).
